Data reported in PubChem BioAssay (NCI).
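Each compound was tested at five concentrations against cells in 96-well plates for 48 hours. Abbreviation: GI50, concentration required for 50% inhibition of growth. The concentration for full growth arrest is given as TGI.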

Legend:
Assay in all cases: growth of human tumour cells (NCI), 48 h
UACC-257 melanoma = system: UACC-257 melanoma
M14 melanoma = system: M14 melanoma
HT29 colon = system: HT29 colon
EKVX NSCLC = system: EKVX NSCLC
IGROV1 ovarian = system: IGROV1 ovarian
SK-MEL-2 melanoma = system: SK-MEL-2 melanoma
HS 578T breast = system: HS 578T breast
HL-60(TB) leukemia = system: HL-60(TB) leukemia
NCI/ADR-RES ovarian = system: NCI/ADR-RES ovarian
HCC-2998 colon = system: HCC-2998 colon
A549 NSCLC = system: A549 NSCLC
MDA-MB-231 breast = system: MDA-MB-231 breast
SF-268 CNS = system: SF-268 CNS
T-47D breast = system: T-47D breast
LOX IMVI melanoma = system: LOX IMVI melanoma
HOP-92 NSCLC = system: HOP-92 NSCLC
786-0 renal = system: 786-0 renal
RPMI-8226 leukemia = system: RPMI-8226 leukemia
K-562 leukemia = system: K-562 leukemia
COLO 205 colon = system: COLO 205 colon
DU-145 prostate = system: DU-145 prostate
HCT-116 colon = system: HCT-116 colon
SK-OV-3 ovarian = system: SK-OV-3 ovarian
U251 CNS = system: U251 CNS
HOP-62 NSCLC = system: HOP-62 NSCLC
OVCAR-5 ovarian = system: OVCAR-5 ovarian
MOLT-4 leukemia = system: MOLT-4 leukemia

## Cc1nc2sc(C(=O)Nc3cccc4ccccc34)c(N)c2cc1C(=O)c1ccccc1
UACC-257 melanoma
  GI50: > 50 µM
  TGI: > 50 µM
M14 melanoma
  GI50: 1.23 µM
  TGI: > 50 µM
HT29 colon
  GI50: 1.81 µM
  TGI: > 50 µM
EKVX NSCLC
  GI50: 2.95 µM
  TGI: > 50 µM
IGROV1 ovarian
  GI50: 1.8 µM
  TGI: > 50 µM
SK-MEL-2 melanoma
  GI50: 3.92 µM
  TGI: > 50 µM
HS 578T breast
  GI50: 1.3 µM
  TGI: > 50 µM
HL-60(TB) leukemia
  GI50: 1.45 µM
  TGI: 4.31 µM
NCI/ADR-RES ovarian
  GI50: 1.43 µM
  TGI: > 50 µM
HCC-2998 colon
  GI50: 1.52 µM
  TGI: > 50 µM
A549 NSCLC
  GI50: 0.403 µM
  TGI: > 50 µM
MDA-MB-231 breast
  GI50: 2.19 µM
  TGI: > 50 µM
SF-268 CNS
  GI50: 3.54 µM
  TGI: > 50 µM
T-47D breast
  GI50: 3.64 µM
  TGI: > 50 µM
LOX IMVI melanoma
  GI50: 2.56 µM
  TGI: > 50 µM
HOP-92 NSCLC
  GI50: 6.82 µM
  TGI: > 50 µM
786-0 renal
  GI50: 2.38 µM
  TGI: > 50 µM
RPMI-8226 leukemia
  GI50: 2.46 µM
  TGI: > 50 µM
K-562 leukemia
  GI50: 0.93 µM
  TGI: > 50 µM
COLO 205 colon
  GI50: 1.65 µM
  TGI: > 50 µM
DU-145 prostate
  GI50: 1.94 µM
  TGI: > 50 µM
HCT-116 colon
  GI50: 1.68 µM
  TGI: > 50 µM
SK-OV-3 ovarian
  GI50: 1.28 µM
  TGI: > 50 µM
U251 CNS
  GI50: 1.97 µM
  TGI: > 50 µM
HOP-62 NSCLC
  GI50: 2.53 µM
  TGI: > 50 µM
OVCAR-5 ovarian
  GI50: 2.27 µM
  TGI: > 50 µM
MOLT-4 leukemia
  GI50: 2.27 µM
  TGI: > 50 µM
